From patent publication US20220033397A1, “PHARMACEUTICAL COMPOUNDS AND THEIR USE AS INHIBITORS OF UBIQUITIN SPECIFIC PROTEASE 19 (USP19)” (ALMAC DISCOVERY LIMITED, priority 2018, published 2022)

Biological target: T1, Full-length USP19 (Homo sapiens, UniProt O94966)
T1 construct: Full-length USP19 was purchased from Boston Biochem (E-576); purchased Boston Biochem E-576
T1 sequence (O94966 1-1318): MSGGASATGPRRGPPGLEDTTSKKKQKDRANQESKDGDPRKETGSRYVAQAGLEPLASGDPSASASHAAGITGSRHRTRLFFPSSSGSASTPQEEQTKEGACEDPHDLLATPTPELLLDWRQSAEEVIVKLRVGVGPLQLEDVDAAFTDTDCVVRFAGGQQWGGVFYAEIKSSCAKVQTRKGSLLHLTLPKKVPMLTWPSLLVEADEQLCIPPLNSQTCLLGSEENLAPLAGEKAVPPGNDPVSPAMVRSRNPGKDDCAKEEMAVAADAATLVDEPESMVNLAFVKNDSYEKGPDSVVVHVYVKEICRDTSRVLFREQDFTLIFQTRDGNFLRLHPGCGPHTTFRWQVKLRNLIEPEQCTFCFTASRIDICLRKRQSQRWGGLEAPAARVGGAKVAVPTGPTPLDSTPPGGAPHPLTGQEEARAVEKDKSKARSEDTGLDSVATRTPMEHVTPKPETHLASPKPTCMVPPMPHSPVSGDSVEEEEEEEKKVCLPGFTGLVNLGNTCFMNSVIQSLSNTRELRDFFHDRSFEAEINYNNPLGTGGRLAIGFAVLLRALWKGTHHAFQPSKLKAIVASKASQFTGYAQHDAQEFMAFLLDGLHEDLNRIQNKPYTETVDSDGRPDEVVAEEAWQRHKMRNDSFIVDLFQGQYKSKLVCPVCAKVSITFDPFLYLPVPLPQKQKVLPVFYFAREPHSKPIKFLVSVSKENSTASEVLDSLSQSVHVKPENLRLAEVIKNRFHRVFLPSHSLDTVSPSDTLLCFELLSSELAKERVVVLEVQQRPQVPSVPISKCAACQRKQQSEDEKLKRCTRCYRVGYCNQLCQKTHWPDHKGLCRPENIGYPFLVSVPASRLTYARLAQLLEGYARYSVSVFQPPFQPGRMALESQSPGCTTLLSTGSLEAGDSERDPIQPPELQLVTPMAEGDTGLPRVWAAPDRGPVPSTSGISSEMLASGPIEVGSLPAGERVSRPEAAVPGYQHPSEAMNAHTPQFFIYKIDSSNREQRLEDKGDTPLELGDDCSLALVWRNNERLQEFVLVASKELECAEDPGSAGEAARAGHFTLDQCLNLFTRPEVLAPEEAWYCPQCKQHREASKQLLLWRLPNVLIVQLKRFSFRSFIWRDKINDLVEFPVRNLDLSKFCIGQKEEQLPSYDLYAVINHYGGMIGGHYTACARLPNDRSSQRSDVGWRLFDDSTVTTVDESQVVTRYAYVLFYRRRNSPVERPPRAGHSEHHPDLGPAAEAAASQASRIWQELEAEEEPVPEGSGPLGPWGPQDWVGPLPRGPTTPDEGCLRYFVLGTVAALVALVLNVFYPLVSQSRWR
Assay: USP19 fluorescence polarisation (FP) homogeneous assay with Ubiquitin-Lys-TAMRA substrate
Assay type: biochemical
Conditions: 2.5 nM USP19, 30 min pre-incubation, average of at least two duplicate experiments
Method in brief: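 Full-length USP19 preincubated 30 min at RT with inhibitor (200 μM to 2 μM series, 8–18 points) before adding 500 nM Ubiquitin-Lys-TAMRA substrate.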

| Compound | IC50 |
| --- | --- |
| O=C(N1CC[C@@](O)(Cn2cnc(-c3ccc4c(c3)CCO4)cc2=O)C2(CCCC2)C1)N1CCNC[C@H]1c1ccccc1 [Example 346, 6-(2,3-Dihydrobenzofuran-5-yl)-3-(((S)-10-hydroxy-7-((R)-2-phenylpiperazine-1-carbonyl)-7-aza-spiro[4.5]decan-10-yl)methyl)pyrimidin-4(3H)-one] | < 0.5 µM |
| O=C(N1CCC(C(F)F)C1)N1CCC(O)(Cn2cnc(-c3ccccc3)cc2=O)C2(CCCC2)C1 (centres unmarked) [Example 262, 3-((7-(3-(Difluoromethyl)pyrrolidine-1-carbonyl)-10-hydroxy-7-azaspiro[4.5]decan-10-yl)methyl)-6-phenylpyrimidin-4(3H)-one] | 5 to 50 µM |
| O=C(N1CC[C@@](O)(Cn2cnc(N3CCCC3)cc2=O)C2(CCCC2)C1)N1CCNC[C@H]1c1ccccc1 [Example 290, 3-(((S)-10-Hydroxy-7-((R)-2-phenylpiperazine-1-carbonyl)-7-azaspiro[4.5]decan-10-yl)methyl)-6-(pyrrolidin-1-yl)pyrimidin-4(3H)-one] | < 0.5 µM |
| COc1cccc(C2CNCCN2C(=O)N2CCC(O)(Cn3cnc(-c4ccccc4)cc3=O)C3(CCCC3)C2)c1 (centres unmarked) [Example 272, 3-((10-Hydroxy-7-(2-(3-methoxyphenyl)piperazine-1-carbonyl)-7-azaspiro[4.5]decan-10-yl)methyl)-6-phenylpyrimidin-4(3H)-one] | 5 to 50 µM |
| O=C(N1CC[C@@](O)(Cn2cnc(-c3ccc(Cl)cc3)cc2=O)C2(CCCC2)C1)N1CCNC[C@H]1c1ccccc1 [Example 349, 6-(4-Chlorophenyl)-3-(((S)-10-hydroxy-7-((R)-2-phenylpiperazine-1-carbonyl)-7-aza-spiro[4.5]decan-10-yl)methyl)pyrimidin-4(3H)-one] | < 0.5 µM |
| CSc1ncc2c(=O)n(CC3(O)CCN(C(=O)[C@H](C)CC(F)(F)F)CC34CCCC4)ccc2n1 (stereo partly drawn) [Example 56, 6-((10-Hydroxy-7-((R)-4,4,4-trifluoro-2-methylbutanoyl)-7-azaspiro[4.5]decan-10-yl)methyl)-2-(methylthio)pyrido[4,3-d]pyrimidin-5(6H)-one] | < 0.5 µM |
| C[C@H](CC1CCCCC1)C(=O)N1CCC(O)(CN2C(=O)COc3c(N)cccc32)C2(CCCC2)C1 (stereo partly drawn) [Example 37, 8-Amino-4-((7-((R)-3-cyclohexyl-2-methylpropanoyl)-10-hydroxy-7-azaspiro[4.5]decan-10-yl)methyl)-2H-benzo[b][1,4]oxazin-3(4H)-one] | 0.5 to 5 µM |
| COCC1CCN(CC2(O)CCN(C(=O)[C@H](C)CC(F)(F)F)CC23CCCC3)C(=O)C1 (stereo partly drawn) [Example 98, 1-((10-Hydroxy-7-((R)-4,4,4-trifluoro-2-methylbutanoyl)-7-azaspiro[4.5]decan-10-yl)methyl)-4-(methoxymethyl)piperidin-2-one] | 5 to 50 µM |
| CSc1ncc2c(=O)n(CC3(O)CCN(C(=O)[C@H](C)CC(F)(F)F)CC34CCCC4)cnc2n1 (stereo partly drawn) [Example 161, 3-((10-Hydroxy-7-((R)-4,4,4-trifluoro-2-methylbutanoyl)-7-azaspiro[4.5]decan-10-yl)methyl)-7-(methylthio)pyrimido[4,5-d]pyrimidin-4(3H)-one] | 0.5 to 5 µM |
| O=C(N1CC[C@@](O)(Cn2ccc(C3CC3)cc2=O)C2(CCCC2)C1)N1CCNC[C@H]1c1ccccc1 [Example 327, 4-Cyclopropyl-1-(((S)-10-hydroxy-7-((R)-2-phenylpiperazine-1-carbonyl)-7-azaspiro[4.5]decan-10-yl)methyl)pyridin-2(1H)-one] | < 0.5 µM |
| Cc1cccc(-c2cc(=O)n(C[C@]3(O)CCN(C(=O)N4CCNC[C@H]4c4ccccc4)CC34CCCC4)cn2)c1 [Example 341, 3-(((S)-10-Hydroxy-7-((R)-2-phenylpiperazine-1-carbonyl)-7-azaspiro[4.5]decan-10-yl)methyl)-6-(m-tolyl)pyrimidin-4(3H)-one] | < 0.5 µM |
| CCn1ncc2c(=O)n(CC3(O)CCN(C(=O)[C@H](C)CC(F)(F)F)CC34CCCC4)cnc21 (stereo partly drawn) [Example 141, 1-Ethyl-5-((10-hydroxy-7-((R)-4,4,4-trifluroo-2-methylbutanoyl)-7-azaspiro[4.5]decan-10-yl)methyl)-1,5-dihydro-4H-pyrazolo[3,4-d]pyrimidin-4-one] | 5 to 50 µM |
| C[C@H](CC(F)(F)F)C(=O)N1CCC(O)(Cn2cnc3sccc3c2=O)C2(CCCC2)C1 (stereo partly drawn) [Example 123, 3-((10-Hydroxy-7-((R)-4,4,4-trifluoro-2-methylbutanoyl)-7-azaspiro[4.5]decan-10-yl)methyl)thieno[2,3-d]pyrimidin-4(3H)-one] | 50 to 250 µM |
| C[C@H](CC1CCCCC1)C(=O)N1CCC(O)(CN2CC(Cc3ccccc3)CC2=O)C2(CCCC2)C1 (stereo partly drawn) [Example 41, 4-Benzyl-1-((7-((R)-3-cyclohexyl-2-methylpropanoyl)-10-hydroxy-7-azaspiro[4.5]decan-10-yl)methyl)pyrrolidin-2-one] | 0.5 to 5 µM |
| CC(C)c1coc([C@@H]2CCCN2C(=O)N2CCC(O)(Cn3cnc(-c4ccccc4)cc3=O)C3(CCCC3)C2)n1 (stereo partly drawn) [Example 270, 3-((10-Hydroxy-7-((S)-2-(4-isopropyloxazol-2-yl)pyrrolidine-1-carbonyl)-7-azaspiro[4.5]decan-10-yl)methyl)-6-phenylpyrimidin-4(3H)-one] | 50 to 250 µM |
| C[C@H](CC1CCCCC1)C(=O)N1CCC(O)(Cn2cc(S(C)(=N)=O)c(Cl)cc2=O)C(C)(C)C1 (stereo partly drawn) [Example 67, 4-Chloro-1-((1-((R)-3-cyclohexyl-2-methylpropanoyl)-4-hydroxy-3,3-dimethylpiperidin-4-yl)methyl)-5-(S-methylsulfonimidoyl)pyridin-2(1H)-one] | 0.5 to 5 µM |
| O=C(N1CCC(O)(Cn2cnc(-c3ccccc3)cc2=O)C2(CCCC2)C1)N1CCNCC1C1CCC1 (centres unmarked) [Example 276, 3-((7-(2-Cyclobutylpiperazine-1-carbonyl)-10-hydroxy-7-azaspiro[4.5]decan-10-yl)methyl)-6-phenylpyrimidin-4(3H)-one] | 5 to 50 µM |
| C[C@H](CC(F)(F)F)C(=O)N1CCC(O)(Cn2ccc3ccc(F)cc3c2=O)C2(CCCC2)C1 (stereo partly drawn) [Example 135, 7-Fluoro-2-((10-hydroxy-7-((R)-4,4,4-trifluroo-2-methylbutanoyl)-7-azaspiro[4.5]decan-10-yl)methyl)isoquinolin-1(2H)-one] | 5 to 50 µM |
| O=C(NCc1cccs1)N1CC[C@@](O)(Cn2cnc(-c3ccccc3)cc2=O)C2(CCCC2)C1 [Example 214, (S)-10-Hydroxy-10-((6-oxo-4-phenylpyrimidin-1(6H)-yl)methyl)-N-(thiophen-2-ylmethyl)-7-azaspiro[4.5]decane-7-carboxamide] | < 0.5 µM |
| C[C@H](CC1CCCCC1)C(=O)N1CCC(O)(Cn2nc3ccccn3c2=O)C(C)(C)C1 (stereo partly drawn) [Example 51, 2-((1-((R)-3-Cyclohexyl-2-methylpropanoyl)-4-hydroxy-3,3-dimethylpiperidin-4-yl)methyl)-[1,2,4]triazolo[4,3-a]pyridin-3(2H)-one] | 5 to 50 µM |
| O=C(N1CCC(O)(Cn2cnc3cc(F)c(F)cc3c2=O)C2(CCCC2)C1)N1CCOC[C@H]1c1ccccc1 (stereo partly drawn) [Example 165, 6,7-Difluoro-3-((10-hydroxy-7-((R)-3-phenylmorpholine-4-carbonyl)-7-azaspiro[4.5]decan-10-yl)methyl)quinazolin-4(3H)-one] | < 0.5 µM |
| O=C(N1CCC(O)(Cn2cnc3c(cnn3C3CC3)c2=O)C2(CCCC2)C1)N1CCNC[C@H]1c1ccccc1 (stereo partly drawn) [Example 183, 1-Cyclopropyl-5-((10-hydroxy-7-((R)-2-phenylpiperazine-1-carbonyl)-7-azaspiro[4.5]decan-10-yl)methyl)-1,5-dihydro-4H-pyrazolo[3,4-d]pyrimidin-4-one] | < 0.5 µM |
| Cn1c2ncncc2c(=O)n1CC1(O)CCN(C(=O)N2CCNC[C@H]2c2ccccc2)CC12CCCC2 (stereo partly drawn) [Example 175, 2-((10-Hydroxy-7-((R)-2-phenylpiperazine-1-carbonyl)-7-azaspiro[4.5]decan-10-yl)methyl)-1-methyl-1,2-dihydro-3H-pyrazolo[3,4-d]pyrimidin-3-one] | 5 to 50 µM |
